Some targets named below: NEK7 (human) (UniProt Q8TDX7); AURKC (human) (UniProt Q9UQB9); CAMKK1 (human) (UniProt Q8N5S9).
What all share (test): radiometric filter-binding kinase assay
Another assay concerns the target NUAK1 (human) (UniProt O60285). As to conditions: compound 10.0 µM.
The next assay has as its target MAP2K6 (human) (UniProt P52564). To be noted: compound 10.0 µM.

Molecules are shown by their SMILES.

Sequence of NEK7 (human) (Q8TDX7 whole entry, looked up): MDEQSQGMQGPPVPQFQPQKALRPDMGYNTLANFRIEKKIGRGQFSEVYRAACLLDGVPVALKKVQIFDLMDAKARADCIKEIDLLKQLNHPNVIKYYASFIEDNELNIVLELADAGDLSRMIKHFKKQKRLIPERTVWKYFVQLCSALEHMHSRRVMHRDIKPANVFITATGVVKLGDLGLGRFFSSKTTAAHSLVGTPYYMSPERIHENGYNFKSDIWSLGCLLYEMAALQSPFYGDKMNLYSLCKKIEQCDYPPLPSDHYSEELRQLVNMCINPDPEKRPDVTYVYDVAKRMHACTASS
Sequence of CAMKK1 (human) (Q8N5S9 whole entry, looked up): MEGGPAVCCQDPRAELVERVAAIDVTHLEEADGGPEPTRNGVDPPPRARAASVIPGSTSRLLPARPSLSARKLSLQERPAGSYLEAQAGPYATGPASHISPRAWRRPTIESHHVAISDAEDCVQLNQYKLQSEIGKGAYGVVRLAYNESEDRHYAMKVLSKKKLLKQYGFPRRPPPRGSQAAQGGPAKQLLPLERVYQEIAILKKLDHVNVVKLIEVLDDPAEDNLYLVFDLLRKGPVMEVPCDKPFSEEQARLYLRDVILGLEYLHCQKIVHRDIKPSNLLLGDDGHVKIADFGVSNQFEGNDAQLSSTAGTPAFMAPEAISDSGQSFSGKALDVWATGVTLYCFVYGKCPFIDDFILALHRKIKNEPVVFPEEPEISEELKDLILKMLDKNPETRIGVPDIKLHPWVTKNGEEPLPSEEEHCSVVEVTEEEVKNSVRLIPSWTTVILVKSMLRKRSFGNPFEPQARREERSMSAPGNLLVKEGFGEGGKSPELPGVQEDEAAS
Sequence of AURKC (human) (Q9UQB9 whole entry, looked up): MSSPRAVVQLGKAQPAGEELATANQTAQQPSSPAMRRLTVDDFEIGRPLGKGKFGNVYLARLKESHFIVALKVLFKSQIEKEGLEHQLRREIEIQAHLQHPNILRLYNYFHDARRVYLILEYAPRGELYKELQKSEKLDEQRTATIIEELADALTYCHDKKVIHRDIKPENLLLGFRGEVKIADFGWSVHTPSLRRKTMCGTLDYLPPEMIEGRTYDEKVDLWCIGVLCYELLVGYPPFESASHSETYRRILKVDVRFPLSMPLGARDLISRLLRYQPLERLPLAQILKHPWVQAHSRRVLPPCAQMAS
Sequence of MAP2K6 (human) (P52564 whole entry, looked up): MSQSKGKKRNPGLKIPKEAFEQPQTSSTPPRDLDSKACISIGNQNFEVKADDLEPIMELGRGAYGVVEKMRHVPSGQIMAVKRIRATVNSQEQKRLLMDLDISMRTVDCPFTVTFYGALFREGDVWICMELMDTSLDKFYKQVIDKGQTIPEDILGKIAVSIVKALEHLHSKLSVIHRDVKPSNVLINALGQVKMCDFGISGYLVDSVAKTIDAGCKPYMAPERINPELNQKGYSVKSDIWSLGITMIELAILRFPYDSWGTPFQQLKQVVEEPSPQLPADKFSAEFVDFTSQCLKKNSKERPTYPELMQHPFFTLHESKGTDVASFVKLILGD
Sequence of NUAK1 (human) (O60285 whole entry, looked up): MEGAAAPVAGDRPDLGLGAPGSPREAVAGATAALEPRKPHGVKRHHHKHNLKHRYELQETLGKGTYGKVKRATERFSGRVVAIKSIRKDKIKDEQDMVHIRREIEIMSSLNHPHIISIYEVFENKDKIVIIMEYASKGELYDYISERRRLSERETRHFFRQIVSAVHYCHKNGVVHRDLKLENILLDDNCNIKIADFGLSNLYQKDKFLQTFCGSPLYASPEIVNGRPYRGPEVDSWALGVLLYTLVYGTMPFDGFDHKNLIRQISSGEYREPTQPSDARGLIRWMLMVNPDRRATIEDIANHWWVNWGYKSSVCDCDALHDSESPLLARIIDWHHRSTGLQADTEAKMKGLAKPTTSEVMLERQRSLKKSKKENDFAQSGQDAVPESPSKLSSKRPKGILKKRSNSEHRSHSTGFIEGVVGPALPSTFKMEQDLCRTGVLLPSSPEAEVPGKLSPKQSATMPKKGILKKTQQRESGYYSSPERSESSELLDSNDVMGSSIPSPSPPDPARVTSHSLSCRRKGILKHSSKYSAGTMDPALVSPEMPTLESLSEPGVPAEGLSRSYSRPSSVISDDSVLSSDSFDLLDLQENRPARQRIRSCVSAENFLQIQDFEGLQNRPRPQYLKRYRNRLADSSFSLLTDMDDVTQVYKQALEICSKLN

On to `Cn1nc(Nc2ccc(F)cc2)c2c(N)ncnc21`, for which the residual activity on NEK7 (human) (compound 1.0 µM) came to 94%; on NEK7 (human) (compound 10.0 µM), 99%; at AURKC (human) (compound 1.0 µM) it was 125%; on AURKC (human) (compound 10.0 µM) it was 117%; on CAMKK1 (human) (compound 1.0 µM), 89%; at CAMKK1 (human) (compound 10.0 µM), 112%.
With `Cc1cccc(Nc2nn(C)c3ncnc(N)c23)c1`, the residual activity at NEK7 (human) (compound 1.0 µM) stood at 88%; at NEK7 (human) (compound 10.0 µM), 91%; on AURKC (human) (compound 1.0 µM), 92%; at AURKC (human) (compound 10.0 µM) it was 117%; on CAMKK1 (human) (compound 1.0 µM) it was 111%; on CAMKK1 (human) (compound 10.0 µM), 114%.
Regarding `Oc1ccc(/C=C/c2cc(O)cc(O)c2)cc1`, the residual activity is 68% at NUAK1 (human); 94% at NEK7 (human) (compound 1.0 µM); 95% on NEK7 (human) (compound 50.0 µM); 75% at AURKC (human) (compound 1.0 µM); 32% at AURKC (human) (compound 50.0 µM); 87% on MAP2K6 (human). Moreover, the residual activity at CAMKK1 (human) (compound 1.0 µM) came out at 98%; at CAMKK1 (human) (compound 50.0 µM), 30%.
Regarding `COc1ccc2c(c1)c1c3c(c4c5ccccc5n(C)c4c1n2CC(O)CN(C)C)C(=O)NC3=O` (centres undefined), the residual activity on NEK7 (human) (compound 0.1 µM) was found to be 94%; at NEK7 (human) (compound 1.0 µM), 84%; at NEK7 (human) (compound 10.0 µM) it was 82%; at AURKC (human) (compound 0.1 µM), 48%; at AURKC (human) (compound 1.0 µM) it was 13%; on AURKC (human) (compound 10.0 µM) it was 7%. In addition, the residual activity on CAMKK1 (human) (compound 0.1 µM) came out at 109%; at CAMKK1 (human) (compound 1.0 µM), 97%; at CAMKK1 (human) (compound 10.0 µM) it was 101%.

The record behind these values is the kinase profiling compilation of Christmann-Franck et al. (2016).
